The values below come from patent publication US20050255097A1, “Modified venom and venom components as anti-retroviral agents” (priority 2004, published 2005).

Data set [1] relates to T cells from peripheral blood. Particulars: Mizuno, et al., 1982; cited from earlier work.
For another data set, the system named is herpesvirus. Put plainly: Antiviral activity against herpes virus. Format: cell-based.
In a further data set the test system is mice. Format: in vivo. The text has this: Administration of a highly toxic substance such as cobratoxin for therapeutic purposes is fraught with obvious difficulties, even when highly diluted. As a diluted substance, its potential effectiveness is reduced, and due to its high affinity for the nAchR, continued use could result in accumulation of the toxin at neuromuscular junctions and the diaphragm with the potential for adverse events. Alpha cobratoxin, of the Thailand cobra, Naja naja kaouthia, is a homogeneous non-glycosylated polypeptide composed of 71 amino acids with a molecular weight of 7821d and a pI of 9.6. Detoxification of alpha-cobratoxin can be achieved by exposure to heat, formamide, hydrogen peroxide, perchloric acid, ozone or other oxidizing agents. The result of exposure of cobratoxin to oxidizing agents is modification of amino acid side chains as well as the lysis of one or more disulfide bonds. […] The procedures used for detoxification described here are based upon the work of Sanders, who preferred the use of hydrogen peroxide (Sanders, et al., 1975). Loss of toxicity by oxidized alpha-neurotoxins (MCTX), as cobratoxin, can be determined by the intraperitoneal (IP) injection of excess levels of the modified protein into mice. […]
The endpoint of the above reactions are most easily determined by assessing the toxicity of the preparation in mice. […]

Data set [2] is classed as cell-based. The conditions noted are these: virus not specified.
The test system of another data set is Semliki Forest virus. Nature of the data set: Antiviral activity against Semliki Forest virus (plaque assay). In kind it is cell-based. An excerpt:
Alternatively, an enzyme linked immunosorbant assay (ELISA) can evaluate loss of toxicity, as well as potential potency in terms of continued ability to bind to the nAchR. […] This enables a measurement of the depression in binding of the modified neurotoxin to nAchR, indicative of loss of toxicity, while simultaneously indicating a continued ability of the modified toxin to bind to the nAchR providing a measure of potency (Raymond; unpublished data). To test the effectiveness, or potency of detoxified venom, Sanders utilized a plaque assay with Semliki Forest virus (Miller, et al., 1977).

The nature of data set [3]: pI and pH of protein solutions. In kind it is physicochemical.

With `C[N+](C)(C)CCOC(N)=O.[Cl-]` [carbamylcholine chloride], the “decrease of E-rosette formation” value in data set [1] is given as 30%-40%.

For “alpha-cobratoxin: native non-glycosylated polypeptide of 71 amino acids from the Thailand cobra, Naja naja kaouthia”, the “antiviral activity against herpes” value in the data set with herpesvirus is on record as “does not have any antiviral activity”. In addition, the LD50 in mice with mice (injected subcutaneously or intraperitoneally, death observable within hours) amounted to 1.2 µg. Also, the time to death with mice (injection of 1.5 mcg, 25 g mouse) is no more than 25 min. The antiviral activity result in data set [2] is recorded as “does not demonstrate antiviral activity”. For the same molecule, the “antiviral activity against Semliki Forest virus” value in the data set on Semliki Forest virus was “does not have any antiviral activity”. In data set [3], this molecule returned a pH of solution of 8.5 and a pI of 9.6.
